System: ovariectomized (OVX) mice
Experiment: OVX-induced osteoporosis mouse model
Format: in vivo
Experimental: Figure 6 Effects of KY‐02327 on OVX‐induced osteoporosis model mice • A–H Vehicle or 20 mg of KY‐02327 per kg of animal body weight (mpk) was orally administered or 0.06 mpk of the N‐terminal fragment of PTH (amino acids 1‐34) was subcutaneously injected into the Sham‐operated (Sham) or ovariectomized (OVX) mice on 5 sequential days per week for 4 weeks (n = 4). After calcein injection, the prepared femoral sections of the OVX mice were examined under fluorescence microscope to visualize integrated calcein (A, green, arrows). Nuclei were counterstained with DAPI (A, blue). Scale bars, 100 μm. Osteoblast numbers (B) and calcein double‐labeled surfaces (C) were measured in the femoral sections. The mouse femurs were analyzed using micro‐CT, and BMD (D) and BV/TV (E) were calculated from the micro‐CT data. The three‐dimensional images of femoral trabecular bone were reconstructed (F), and trabecular number (G) and trabecular separation (H) were calculated. Data Information: The data are the mean ± s.d. (error bars). Significance was assessed using Kruskal–Wallis test.
This animal study was approved by the Institutional Review Board of Severance Hospital, Yonsei University College of Medicine. The mice were housed in filter‐topped shoebox cages with a computerized environmental control system (MJ LTD, Seoul, Korea). The care and treatment of experimental animals were performed in accordance with institutional guidelines. The room temperature was maintained at 26.5°C with a relative humidity of approximately 40–70%. The mice were given a standard maintenance diet from Dae Han Bio Link (Daejeon, Korea). For OVX mouse experiments, the surgeries were performed with 8‐week‐old female BL6 mice under anesthesia with avertin (2,2,2‐tribromoethanol; Worthington Biochemical, Freehold, NJ) as described previously (Zahoor et al, 2014). After removing the hair, dorsal incisions were made into the dermal layers above both sides of the ovaries using dissection scissors. The connection between the fallopian tube and the uterine horn was cut, and the ovary was removed. The incision was then sutured with 3 single catgut stitches. Sham mice were used as controls. After 4 weeks, the OVX group was divided into three groups for oral administration of vehicle (saline containing 10% Tween‐60) or 20 mg of KY‐02327 per kg of animal body weight (mpk) of KY‐02327, or for subcutaneous injection of 0.06 mpk of N‐terminal fragment of PTH (amino acids 1–34), which were administered for 5 sequential days per week for 4 weeks. The animals were sacrificed, and the organs were harvested for analysis. For the calcein double‐labeling experiment (Pall et al, 1987), calcein (10 mpk in 2% sodium hydrocarbonate, pH 7.4) was injected twice, on the last day of the 2nd and 3rd week. All the mice were randomly assigned to each groups, and the investigators were blinded to the group allocation during the treatments and experiments.
The mouse femurs were scanned using a micro‐CT system (Skyscan 1072; Skyscan, Aartselaar, Belgium). The scanned image data were reconstructed to create 3D images and analyzed using the CT‐Analyzing Program (Skyscan). For femoral trabecular bone analysis, the femurs were scanned with a voxel size of 10 μm, beginning at the end of the growth plate and extending proximally along the diaphysis, and 80 continuous slices (beginning at 0.1 mm from the most proximal aspect of the growth plate in which both condyles were no longer visible) were selected for analysis.
The femurs of OVX mice and the calvariae of 4‐day‐old mice were fixed in 4% paraformaldehyde in PBS. The bones were then decalcified in 10 mM EDTA and embedded in paraffin. Five‐micrometer tissue sections were deparaffinized in 100% xylene followed by re‐hydration with sequential 100% to 50% ethanol washes. The sections were stained with hematoxylin and eosin (H&E), and light micrographs were captured using a SMZ645 Nikon microscope (Nikon, Tokyo, Japan). […]

[1] = KY‐02327 20 mpk oral, PTH 0.06 mpk subcutaneous, 4 weeks
[2] = KY‐02327 20 mpk oral, PTH 0.06 mpk subcutaneous, 5 days per week for 4 weeks

Structure (SMILES): CCOC(=O)c1cc2cc(O)ccc2n1CC(=O)NCCN1CCCCC1 [KY‐02327]
- histology of livers, lungs, spleens (4 weeks treatment, H&E): No histological abnormalities
- weight of treated mice (4‐week treatment): did not change significantly
- destroyed trabecular bones (3D micro-CT images) [1]: rescued
- mineral contents of the bone (BMD), femur, micro‐CT [1]: significantly increased
- trabecular bone number [1]: increase
- trabecular separation [1]: decrease
- volume of bone (BV/TV) (KY‐02327 20 mpk oral, PTH 0.06 mpk subcutaneous, 4 weeks, vs vehicle): increased
- calcein double‐labeled surface [2]: increased
- new bone formation (calcein-labeled) in femur [2]: recovered
- number of osteoblasts [2]: increased
- calcein double-labelled surface, fold increase (OVX mice, 20 mpk oral): approximately 2 fold
- number of osteoblasts, fold increase (OVX mice, 20 mpk oral): approximately 2 fold
